{
  "source": "patent US20210069351A1",
  "about": "“METHOD FOR SCREENING PAIN INHIBITING SUBSTANCE” (priority 2017, published 2021)",
  "key": {"[1]": {"assay": "Stability of GABA and glutamate test samples under storage, treatment and analysis conditions", "type": "physicochemical", "method": "The test samples were stored in a freezer at −70° C., and thawed at room temperature before use. 20 μL of microdialysate was added to 20 μL of acetonitrile, well mixed (vortexing, 30 sec) and centrifuged at 3,000 rpm for 5 minutes. A supernatant was taken and injected by 5 μL for LC-MS/MS analysis.\nStability was tested under various conditions for which GABA and a glutamate test sample could be exposed."}, "[2]": {"tested_on": "β-endorphin", "assay": "Neuropeptide and cytokine concentrations in spinal cord dorsal horn microdialysate after pregabalin", "type": "in vivo, rat", "settings": "30 mg/kg pregabalin, neuropathic pain model and control", "text": "Spared nerve injury (SNI) models were used to assess the concentration of a pain indicator substance present in a dorsal horn in the spinal cord. To generate an efficient neuropathic pain model, the rats were anesthetized under 3% isoflurane (Hana Pharm., South Korea), after incision on the left hind of the rat leg the common peroneal and the tibial nerve of three peripheral nerve branches in the sciatic nerve were axotomized and the sural nerve was spared then the surgical site was closed (FIG. 1). After surgery, animals were placed in the home cage to recover. 2 weeks after surgery, hypersensitivity will occur in the lateral area of the rat left hind paw.\nBefore inserting microdialysis probe into the tissue, the probe was immersed in 70% ethanol and washed for 15 minutes at the flow rate of 3.5 ul/min. Then, the probe was immersed in distilled water and washed for 15 minutes in the same protocol. When the washing step was completed, the probe was inserted at a depth of approximately 2 mm into the dorsal horn of the L1 spinal cord (FIG. 4). […]\nFor analysis of the neuropeptide and cytokine of the test samples was used using “Luminex 200 multiplex system” by multiplex cytokines assay. Ten most important of pain-related neuropeptides such as IFN-gamma, IL-1 beta, IL-6, IL-10, TNF-α, MCP-1, MIP-1α, BDNF, substance P and β-endorphin and cytokines were analyzed using a total of 4 kits."}},
  "data": [
    {"smiles": "NCCCC(=O)O", "note": "[GABA, γ-aminobutyric acid]", "values": [
      {"measurement": "Remaining, freeze/thaw", "setting": "[1]; 20 ng/mL", "result": 103.1, "unit": "%"},
      {"measurement": "Remaining, freeze/thaw", "setting": "[1]; 100 ng/mL", "result": 106.7, "unit": "%"},
      {"measurement": "Remaining, freeze/thaw", "setting": "[1]; 800 ng/mL", "result": 101.6, "unit": "%"},
      {"measurement": "Remaining, long term stability", "setting": "[1]; 1 month, 20 ng/mL", "result": 101.8, "unit": "%"},
      {"measurement": "Remaining, long term stability", "setting": "[1]; 1 month, 100 ng/mL", "result": 102.3, "unit": "%"},
      {"measurement": "Remaining, long term stability", "setting": "[1]; 1 month, 800 ng/mL", "result": 97.7, "unit": "%"},
      {"measurement": "Remaining, autosampler tray", "setting": "[1]; 6 h, 20 ng/mL", "result": 105.4, "unit": "%"},
      {"measurement": "Remaining, microdialysis sample at RT", "setting": "[1]; 6 h, 20 ng/mL", "result": 105.3, "unit": "%"},
      {"measurement": "Remaining, autosampler tray", "setting": "[1]; 6 h, 100 ng/mL", "result": 101.2, "unit": "%"},
      {"measurement": "Remaining, microdialysis sample at RT", "setting": "[1]; 6 h, 100 ng/mL", "result": 100.6, "unit": "%"},
      {"measurement": "Remaining, autosampler tray", "setting": "[1]; 6 h, 800 ng/mL", "result": 92.1, "unit": "%"},
      {"measurement": "Remaining, microdialysis sample at RT", "setting": "[1]; 6 h, 800 ng/mL", "result": 91.8, "unit": "%"}
    ]},
    {"smiles": "N[C@@H](CCC(=O)O)C(=O)O", "note": "[Glutamate, glutamate]", "values": [
      {"measurement": "Remaining, freeze/thaw", "setting": "[1]; 3 cycles, 20 ng/mL", "result": 104.1, "unit": "%"},
      {"measurement": "Remaining, freeze/thaw", "setting": "[1]; 3 cycles, 100 ng/mL", "result": 100.8, "unit": "%"},
      {"measurement": "Remaining, freeze/thaw", "setting": "[1]; 3 cycles, 800 ng/mL", "result": 101.9, "unit": "%"},
      {"measurement": "Remaining, autosampler tray", "setting": "[1]; 4° C. for 6 h, 20 ng/mL", "result": 106.5, "unit": "%"},
      {"measurement": "Remaining, autosampler tray", "setting": "[1]; 4° C. for 6 h, 100 ng/mL", "result": 102.3, "unit": "%"},
      {"measurement": "Remaining, autosampler tray", "setting": "[1]; 4° C. for 6 h, 800 ng/mL", "result": 101.1, "unit": "%"},
      {"measurement": "Remaining, microdialysis sample at RT", "setting": "[1]; RT for 6 h, 20 ng/mL", "result": 101.3, "unit": "%"},
      {"measurement": "Remaining, microdialysis sample at RT", "setting": "[1]; RT for 6 h, 100 ng/mL", "result": 97.3, "unit": "%"},
      {"measurement": "Remaining, microdialysis sample at RT", "setting": "[1]; RT for 6 h, 800 ng/mL", "result": 99.8, "unit": "%"},
      {"measurement": "Remaining, long term stability", "setting": "[1]; −70° C. 1 month, 20 ng/mL", "result": 104.2, "unit": "%"},
      {"measurement": "Remaining, long term stability", "setting": "[1]; −70° C. 1 month, 100 ng/mL", "result": 98.6, "unit": "%"},
      {"measurement": "Remaining, long term stability", "setting": "[1]; −70° C. 1 month, 800 ng/mL", "result": 96.0, "unit": "%"}
    ]},
    {"smiles": "CC(C)C[C@H](CN)CC(=O)O", "note": "[pregabalin]", "values": [
      {"measurement": "concentrations of β-endorphin in microdialysate", "setting": "[2]", "result": "significantly increased and then decreased"}
    ]}
  ]
}
